Legend:
Type in all cases: cell-based
human TLR7 = biological target: T1, human TLR7 (Homo sapiens, UniProt Q9NYK1); experiment: TLR7 inhibition reporter assay (HEK-Blue SEAP); details: HEK-Blue cells overexpressing human TLR7, stimulated with gardiquimod 7.5 μM, 22 hour incubation
T1 construct: host or cells: HEK-Blue cells
T1 sequence (Q9NYK1 27-1049): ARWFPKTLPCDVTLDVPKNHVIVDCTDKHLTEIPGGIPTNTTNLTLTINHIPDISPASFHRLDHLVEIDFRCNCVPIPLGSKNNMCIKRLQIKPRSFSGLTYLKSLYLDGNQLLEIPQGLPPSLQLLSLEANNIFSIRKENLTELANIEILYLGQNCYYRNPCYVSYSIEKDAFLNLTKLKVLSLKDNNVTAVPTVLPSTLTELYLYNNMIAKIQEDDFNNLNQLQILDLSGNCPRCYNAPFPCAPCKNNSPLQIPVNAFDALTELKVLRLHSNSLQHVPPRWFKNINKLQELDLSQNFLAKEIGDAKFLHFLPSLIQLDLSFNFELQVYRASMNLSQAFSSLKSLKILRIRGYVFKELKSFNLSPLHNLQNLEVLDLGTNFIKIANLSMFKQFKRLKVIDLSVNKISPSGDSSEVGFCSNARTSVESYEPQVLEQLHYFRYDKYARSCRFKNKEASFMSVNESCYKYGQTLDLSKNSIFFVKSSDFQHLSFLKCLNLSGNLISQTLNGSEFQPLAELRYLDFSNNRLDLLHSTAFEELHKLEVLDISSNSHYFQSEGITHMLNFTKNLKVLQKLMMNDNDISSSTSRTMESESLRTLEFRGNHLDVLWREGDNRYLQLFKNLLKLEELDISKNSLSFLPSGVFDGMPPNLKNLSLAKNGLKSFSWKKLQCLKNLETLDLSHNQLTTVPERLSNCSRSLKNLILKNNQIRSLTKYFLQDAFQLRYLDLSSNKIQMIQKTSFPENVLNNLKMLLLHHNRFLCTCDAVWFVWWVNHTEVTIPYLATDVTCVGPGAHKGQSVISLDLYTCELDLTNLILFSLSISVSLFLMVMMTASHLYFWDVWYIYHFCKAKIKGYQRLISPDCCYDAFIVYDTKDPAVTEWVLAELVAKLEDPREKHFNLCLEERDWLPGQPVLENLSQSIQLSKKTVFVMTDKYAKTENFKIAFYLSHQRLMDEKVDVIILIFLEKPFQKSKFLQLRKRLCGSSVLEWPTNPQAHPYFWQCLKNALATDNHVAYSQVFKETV
Summary of the method: (§1)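 Reporter HEK-Blue lines; cpd 0.05 nM–50 μM, 30 min preincubation RT; agonist: TLR7 gardiquimod 7.5 μM, TLR8 R848 15.9 μM, TLR9 ODN2006 5 nM; 22 h 37 °C; SEAP detected colorimetrically; % inhib vs known inhibitor.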

human TLR8 = biological target: T2, human TLR8 (Homo sapiens, UniProt Q9NR97); experiment: TLR8 inhibition reporter assay (HEK-Blue SEAP); details: HEK-Blue cells overexpressing human TLR8, stimulated with R848 15.9 μM, 22 hour incubation
T2 construct: host or cells: HEK-Blue cells
T2 sequence (Q9NR97 27-1041): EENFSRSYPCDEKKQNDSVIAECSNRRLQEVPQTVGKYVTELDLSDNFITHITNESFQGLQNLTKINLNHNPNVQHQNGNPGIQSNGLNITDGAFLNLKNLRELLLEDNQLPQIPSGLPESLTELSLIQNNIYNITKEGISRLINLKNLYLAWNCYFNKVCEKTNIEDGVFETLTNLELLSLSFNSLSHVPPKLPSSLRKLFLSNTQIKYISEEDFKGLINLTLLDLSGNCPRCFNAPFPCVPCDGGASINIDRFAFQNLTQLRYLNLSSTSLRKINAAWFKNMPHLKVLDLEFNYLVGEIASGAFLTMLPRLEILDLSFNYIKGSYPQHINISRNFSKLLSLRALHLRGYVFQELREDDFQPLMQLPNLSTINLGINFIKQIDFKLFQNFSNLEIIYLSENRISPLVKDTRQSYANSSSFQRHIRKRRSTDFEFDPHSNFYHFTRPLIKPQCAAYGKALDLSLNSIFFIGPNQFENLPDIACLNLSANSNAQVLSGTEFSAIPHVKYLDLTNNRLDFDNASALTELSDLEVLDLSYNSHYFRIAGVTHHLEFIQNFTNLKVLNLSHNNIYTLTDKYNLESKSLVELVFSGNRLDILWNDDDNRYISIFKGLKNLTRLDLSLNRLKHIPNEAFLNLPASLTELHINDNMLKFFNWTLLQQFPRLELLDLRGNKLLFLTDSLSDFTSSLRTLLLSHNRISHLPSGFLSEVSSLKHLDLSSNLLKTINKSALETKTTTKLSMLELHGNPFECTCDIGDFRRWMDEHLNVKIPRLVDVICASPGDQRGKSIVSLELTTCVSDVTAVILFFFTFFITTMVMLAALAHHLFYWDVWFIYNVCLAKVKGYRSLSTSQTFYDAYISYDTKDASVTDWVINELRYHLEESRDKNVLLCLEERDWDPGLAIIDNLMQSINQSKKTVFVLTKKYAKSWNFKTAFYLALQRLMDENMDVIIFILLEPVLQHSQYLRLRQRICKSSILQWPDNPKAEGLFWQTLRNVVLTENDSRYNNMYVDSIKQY
Summary of the method: as §1

human TLR9 = biological target: T3, human TLR9 (Homo sapiens, UniProt Q9NR96); experiment: TLR9 inhibition reporter assay (HEK-Blue SEAP); details: HEK-Blue cells overexpressing human TLR9, stimulated with ODN2006 5 nM, 22 hour incubation
T3 construct: host or cells: HEK-Blue cells
T3 sequence (Q9NR96 26-1032): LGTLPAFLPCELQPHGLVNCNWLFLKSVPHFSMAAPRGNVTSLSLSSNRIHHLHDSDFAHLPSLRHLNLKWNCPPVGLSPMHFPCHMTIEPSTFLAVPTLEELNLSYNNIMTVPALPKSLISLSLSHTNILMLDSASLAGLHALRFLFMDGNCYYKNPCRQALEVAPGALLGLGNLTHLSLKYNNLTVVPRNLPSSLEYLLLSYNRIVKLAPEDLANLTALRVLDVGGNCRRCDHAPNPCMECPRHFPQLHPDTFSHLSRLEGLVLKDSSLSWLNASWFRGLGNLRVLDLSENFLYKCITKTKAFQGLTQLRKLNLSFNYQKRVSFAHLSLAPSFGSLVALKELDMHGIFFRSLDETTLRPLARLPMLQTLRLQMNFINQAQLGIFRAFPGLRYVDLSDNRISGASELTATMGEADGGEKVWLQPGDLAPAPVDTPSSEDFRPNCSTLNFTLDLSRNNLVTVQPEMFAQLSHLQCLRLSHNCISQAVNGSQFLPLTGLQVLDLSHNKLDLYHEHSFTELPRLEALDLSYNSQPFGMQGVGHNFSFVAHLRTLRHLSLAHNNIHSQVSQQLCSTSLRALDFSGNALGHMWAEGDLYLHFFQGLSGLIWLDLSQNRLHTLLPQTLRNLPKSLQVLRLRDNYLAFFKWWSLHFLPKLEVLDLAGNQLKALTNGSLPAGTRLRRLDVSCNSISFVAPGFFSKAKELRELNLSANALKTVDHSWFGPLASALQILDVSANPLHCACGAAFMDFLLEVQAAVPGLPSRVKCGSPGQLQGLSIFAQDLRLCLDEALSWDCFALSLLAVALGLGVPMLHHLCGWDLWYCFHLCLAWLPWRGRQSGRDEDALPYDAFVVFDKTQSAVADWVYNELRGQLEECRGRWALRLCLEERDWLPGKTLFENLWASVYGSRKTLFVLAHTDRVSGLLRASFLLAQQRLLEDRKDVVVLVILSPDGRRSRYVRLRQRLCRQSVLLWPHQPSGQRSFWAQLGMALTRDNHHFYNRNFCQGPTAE
Summary of the method: as §1

For Cc1cc(-c2cc3[nH]nc(C4CCC(N5CCCC5)CC4)c3cc2C(C)C)cn2ncnc12 (single isomer, unassigned) [Example 130, 6-(5-isopropyl-3-(4-(pyrrolidin-1-yl)cyclohexyl)-1H-indazol-6-yl)-8-methyl-[1,2,4]triazolo[1,5-a]pyridine], the IC50 (human TLR7) was 0.2 nM, the IC50 (human TLR8) was 0.1 nM and the IC50 (human TLR9) was 4200 nM.

Cc1cc(-c2cc3[nH]nc(C4CCC(N5CCCC5)CC4)c3cc2C(C)C)cn2ncnc12 (single isomer, unassigned) [Example 131, 6-(5-isopropyl-3-(4-(pyrrolidin-1-yl)cyclohexyl)-1H-indazol-6-yl)-8-methyl-[1,2,4]triazolo[1,5-a]pyridine] gave an IC50 (human TLR7) of 2 nM, an IC50 (human TLR8) of 0.3 nM and an IC50 (human TLR9) of 4570 nM.

Cc1cc(-c2cc3[nH]nc(C4CCC(N5CC(F)(F)C5)CC4)c3cc2C(C)C)cn2ncnc12 (single isomer, unassigned) [Example 134, 6-(3-(4-(3,3-difluoroazetidin-1-yl)cyclohexyl)-5-isopropyl-1H-indazol-6-yl)-8-methyl-[1,2,4]triazolo[1,5-a]pyridine] showed an IC50 (human TLR7) of 2.5 nM, an IC50 (human TLR8) of 0.2 nM and an IC50 (human TLR9) of 15900 nM.

Cc1cc(-c2cc3[nH]nc(C4CCC(N5CC(F)(F)C5)CC4)c3cc2C(C)C)cn2ncnc12 (single isomer, unassigned) [Example 135, 6-(3-(4-(3,3-difluoroazetidin-1-yl)cyclohexyl)-5-isopropyl-1H-indazol-6-yl)-8-methyl-[1,2,4]triazolo[1,5-a]pyridine] gave an IC50 (human TLR7) of 15.5 nM, an IC50 (human TLR8) of 9.4 nM and an IC50 (human TLR9) of 18900 nM.

For Cc1cc(-c2cc3[nH]nc(C4CCC(N5CC(C)(C)C5)CC4)c3cc2C(C)C)cn2ncnc12 (single isomer, unassigned) [Example 136, 6-(3-(4-(3,3-dimethylazetidin-1-yl)cyclohexyl)-5-isopropyl-1H-indazol-6-yl)-8-methyl-[1,2,4]triazolo[1,5-a]pyridine], the IC50 (human TLR7) was 26.3 nM, the IC50 (human TLR8) was 3.9 nM and the IC50 (human TLR9) was 4900 nM.

Cc1cc(-c2cc3[nH]nc(C4CCC(N5CC(C)(C)C5)CC4)c3cc2C(C)C)cn2ncnc12 (single isomer, unassigned) [Example 137, 6-(3-(4-(3,3-dimethylazetidin-1-yl)cyclohexyl)-5-isopropyl-1H-indazol-6-yl)-8-methyl-[1,2,4]triazolo[1,5-a]pyridine] gave an IC50 (human TLR7) of 5.5 nM, an IC50 (human TLR8) of 0.6 nM and an IC50 (human TLR9) of 8680 nM.

Cc1cc(-c2cc3[nH]nc(C4CCC(N5CCC5)CC4)c3cc2C(C)C)cn2ncnc12 (single isomer, unassigned) [Example 138, 6-(3-(4-(azetidin-1-yl)cyclohexyl)-5-isopropyl-1H-indazol-6-yl)-8-methyl-[1,2,4]triazolo[1,5-a]pyridine] was tested, and the IC50 (human TLR7) was 1 nM, the IC50 (human TLR8) was 0.5 nM and the IC50 (human TLR9) was 5870 nM.

Cc1cc(-c2cc3[nH]nc(C4CCC(N5CCC5)CC4)c3cc2C(C)C)cn2ncnc12 (single isomer, unassigned) [Example 139, 6-(3-(4-(azetidin-1-yl)cyclohexyl)-5-isopropyl-1H-indazol-6-yl)-8-methyl-[1,2,4]triazolo[1,5-a]pyridine] gave an IC50 (human TLR7) of 1.2 nM, an IC50 (human TLR8) of 0.1 nM and an IC50 (human TLR9) of 6250 nM.

For COc1cc(-c2cc3[nH]nc(C4CCC(N(C)C)CC4)c3cc2C(C)C)cn2ncnc12 (single isomer, unassigned) [Example 140, 4-(5-isopropyl-6-(8-methoxy-[1,2,4]triazolo[1,5-a]pyridin-6-yl)-1H-indazol-3-yl)-N,N-dimethylcyclohexan-1-amine], the IC50 (human TLR7) was 0.2 nM, the IC50 (human TLR8) was 0.1 nM and the IC50 (human TLR9) was 3430 nM.

COc1cc(-c2cc3[nH]nc(C4CCC(N(C)C)CC4)c3cc2C(C)C)cn2ncnc12 (single isomer, unassigned) [Example 141, 4-(5-isopropyl-6-(8-methoxy-[1,2,4]triazolo[1,5-a]pyridin-6-yl)-1H-indazol-3-yl)-N,N-dimethylcyclohexan-1-amine] was tested, and the IC50 (human TLR7) was 5.3 nM, the IC50 (human TLR8) was 2.9 nM and the IC50 (human TLR9) was 3720 nM.

Cc1cc(-c2cc3[nH]nc(C4CCC(N5CC6(C5)CS(=O)(=O)C6)CC4)c3cc2C(C)C)cn2ncnc12 (single isomer, unassigned) [Example 142, 6-(4-(5-isopropyl-6-(8-methyl-[1,2,4]triazolo[1,5-a]pyridin-6-yl)-1H-indazol-3-yl)cyclohexyl)-2-thia-6-azaspiro[3.3]heptane 2,2-dioxide] was tested, and the IC50 (human TLR7) was 1.3 nM, the IC50 (human TLR8) was 0.2 nM and the IC50 (human TLR9) was 9710 nM.

In the case of Cc1cc(-c2cc3[nH]nc(C4CCC(N5CC6(C5)CS(=O)(=O)C6)CC4)c3cc2C(C)C)cn2ncnc12 (single isomer, unassigned) [Example 143, 6-(4-(5-isopropyl-6-(8-methyl-[1,2,4]triazolo[1,5-a]pyridin-6-yl)-1H-indazol-3-yl)cyclohexyl)-2-thia-6-azaspiro[3.3]heptane 2,2-dioxide], the IC50 (human TLR7) is reported as 3.5 nM, the IC50 (human TLR8) is reported as 1.5 nM and the IC50 (human TLR9) is reported as 6710 nM.

Reference: patent US12172995B2, “Substituted indole and indazole compounds” (BRISTOL-MYERS SQUIBB COMPANY, priority 2018, dated 2024)
